TGI and GI50 data for 21 molecules are collected here from PubChem BioAssay (NCI).

What all share (assay): NCI anticancer screen, dose series, 48 h
Test [1] has as its system HCC-2998 colon.
Test [2] has as its system A498 renal.
Test [3] relates to HOP-92 NSCLC.
Test [4] deals with OVCAR-3 ovarian.
For test [5], the system named is U251 CNS.
Test [6] deals with 786-0 renal.
Test [7] has as its system LOX IMVI melanoma.
Test [8] concerns HCT-15 colon.
Test [9] concerns SK-MEL-5 melanoma.
Test [10] concerns DMS 114 small cell lung.
Test [11] deals with M19-MEL melanoma.
The subject of test [12] is SF-295 CNS.
Test [13] has as its system BT-549 breast.
Test [14] relates to RPMI-8226 leukemia.
Test [15] deals with PC-3 prostate.

“And” between values parts separate entries of the source, which are not always exact repeats. Equal values may be shown once.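 48-hour exposure; five concentrations; linearly interpolated endpoints. Abbreviation: GI50, concentration required for 50% inhibition of growth. At the TGI there is no net growth.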

Turning to `CCOc1ccc2[nH]c3c(C)c4ccncc4c(C)c3c2c1`, the TGI in test [1] worked out at 2.74 µM; in test [2] it was 3.2 µM; in test [3] it was 3.07 µM; in [4] it was 17.7 µM; in [5], 2.16 µM; in [6], 2.2 µM. Moreover, the TGI turned out to be 2.49 µM in [7]; 1.61 µM in test [8]; 2.86 µM in [9]; 3.01 µM in test [10]; 3.1 µM in test [11]; 2.19 µM in [12].
Take `COc1cc2c(cc1OC)C(=O)N(c1ccc(O)cc1)C2=O`: the TGI in test [1], in test [2], in test [13], in test [3], in [4] and in [14] was over 100 µM each time. Moreover, the TGI in test [5], in test [6], in [15], in [7], in test [8] and in test [9] was over 100 µM throughout. Further, the TGI in test [12] is over 100 µM.
For `CC(=O)OC12C3C4C1C1C2C3C41OC(C)=O` (stereo not drawn), the TGI in test [1], in test [2], in [13], in test [3], in [4] and in [14] was over 100 µM throughout. For the same molecule, the TGI in test [5], in test [6], in [15], in [7], in test [8] and in test [9] was over 100 µM each time. This molecule also showed a TGI in test [12] of over 100 µM.
Regarding `CC1=NC2=Nc3nc(C)cc[n+]3CN2C=C1`, the TGI in test [1] was over 100 µM; in test [2], over 100 µM; in test [13] it was over 100 µM; in test [3], over 100 µM; in test [4], over 100 µM; in test [14] it was 67.5 µM. For the same molecule, the TGI in [5], in test [6], in test [15], in [7], in [8] and in test [9] was over 100 µM in each case. In addition, the TGI in test [12] was over 100 µM.
With `COc1ccc(C2OC(=O)c3ccc4ccccc4c32)c(C)c1` (stereo not drawn), the TGI in test [1] was 12.3 µM; in test [2], 66.2 µM; in [13], over 100 µM; in test [3], over 89.8 µM; in test [4], 53.1 µM; in test [14], over 65.4 µM. The TGI is 30.6 µM in test [5]; 54 µM in test [6]; over 100 µM in test [15]; over 100 µM in [7]; over 60.5 µM in [8]; 17.6 µM in test [9]. Also, the TGI in test [12] was 14.7 µM.
For the molecule `CS(=O)(=O)OCCN(CCOS(C)(=O)=O)c1ccc(C=Nc2cccc(Cl)c2)cc1`, the TGI is 19.7 µM in [1]; 13.8 µM in test [2]; 53.3 µM in [13]; over 92.7 µM in test [3]; 51.8 µM in test [4]; 32.6 µM in test [14]. The TGI in test [5] is 20.7 µM; in test [6] it was over 100 µM; in test [15], over 100 µM; in test [7], 15.2 µM; in test [8], 10 µM; in [9] it was 22.6 µM. The molecule also displayed a TGI in test [12] of 28.9 µM.
`O=C(/C=C/c1cccc(Oc2ccccc2)c1)NCc1ccc(C(=O)NCc2ccccc2)cc1`: the TGI in [1], in [2], in [13], in test [3], in test [4] and in [14] was over 100 µM throughout. For the same molecule, the TGI in test [5], in test [6], in [15], in [7], in [8] and in test [9] was over 100 µM throughout. For the same molecule, the TGI in test [12] came to 79.4 µM.
Regarding `Clc1ccc(C2=NN=C3C(c4ccccc4)=Nc4ccccc4N3C2)cc1`, the TGI in test [1] is over 100 µM; in [2], over 100 µM; in test [13], over 100 µM; in [3], over 93.2 µM; in test [4], over 20.1 µM; in test [14] it was over 29.4 µM. Moreover, the TGI in [5] was over 100 µM; in [6], over 100 µM; in test [15], over 100 µM; in test [7] it was over 100 µM; in test [8], over 100 µM; in test [9] it was 16.5 µM. The same molecule showed a TGI in test [12] of over 100 µM.
In the case of `O=S(=O)(Nc1nc2ccccc2nc1Nc1ccc2ccccc2c1)c1ccccc1`, the TGI in [1] was 29 µM; in test [2], over 100 µM; in [13], over 80.1 µM; in test [3], 51.3 µM; in test [4] it was 8.96 µM; in [14], over 47 µM. Besides, the TGI in test [5] is over 100 µM; in [6] it was over 100 µM; in [15] it was over 37.2 µM; in test [7], 48.8 µM; in test [8], over 57.5 µM; in test [9] it was 42.6 µM. Besides, the TGI in test [12] came out at 47.3 µM.
Take `C/C=C(/I)CBr`: the TGI in test [1] came out at 29.4 µM; in [3] it was 29.2 µM; in test [14], 39.2 µM; in test [6], 30.8 µM; in test [7], 36.2 µM; in test [8] it was 51.2 µM. For the same molecule, the TGI in test [9] came to 29.4 µM; in test [10] it was 28.4 µM; in [11] it was 28.6 µM.
Turning to `O=C(NCCN1CCOCC1)c1cn2c(ccc3sc4ccccc4c(=O)c32)n1`, the TGI was 54.1 µM in test [1]; over 100 µM in [2]; over 100 µM in test [13]; over 100 µM in test [3]; over 100 µM in test [4]; 41.2 µM in test [14]. In addition, the TGI was 21.6 µM in test [5]; 40 µM in [6]; over 100 µM in test [15]; 47.4 µM in test [7]; over 100 µM in test [8]; 60.6 µM in test [9]. This molecule also displayed a TGI in test [12] of 44.9 µM.
Turning to `C=C(C(=O)O)[C@@H]1C[C@@H]2O[C@H]1[C@@H](O)[C@@H](C)CCCC(C)=CCC[C@@]2(C)O`, the TGI in test [1], in test [2], in test [13], in test [3], in test [4] and in test [14] was over 100 µM throughout. Besides, the TGI in test [5], in [6], in test [15], in test [7], in [8] and in test [9] was over 100 µM each time. Further, the TGI in test [12] is over 100 µM. Besides, the GI50 was 33.5 µM and > 100 µM in test [13]; 25 µM and 55.9 µM in test [14].
In the case of `Nc1nc(Cl)c(N)c(NCC2(CO)CC2)n1`, the TGI in [1], in [2], in test [13], in test [3], in test [4] and in test [14] was over 100 µM throughout. In addition, the TGI in test [5], in test [6], in test [15], in test [7], in test [8] and in test [9] was over 100 µM in each case. The molecule further showed a TGI in test [12] of over 100 µM.
Consider `CC(C)CCC[C@@H](C)[C@H]1CC[C@H]2[C@@H]3CC[C@H]4C[C@@H](CCC=C(c5cc(Cl)c(O)c(C(=O)O)c5)c5cc(Cl)c(O)c(C(=O)O)c5)CC[C@]4(C)[C@H]3CC[C@]12C`, for which the TGI in [1], in test [2], in test [13], in test [3], in [4] and in test [14] was over 100 µM in each case. The TGI in test [5], in test [6], in test [15], in test [7], in test [8] and in test [9] was over 100 µM in each case. The molecule further registered a TGI in [12] of over 100 µM.
Take `NC(=O)N/N=C(/CC1C(=O)Oc2ccccc21)c1ccccc1O` (stereo not drawn): the TGI was 91.1 µM in [1]; over 100 µM in test [2]; over 100 µM in [13]; over 100 µM in test [3]; over 100 µM in test [4]; 34.9 µM in test [14]. In addition, the TGI is over 100 µM in test [5]; over 100 µM in test [6]; over 100 µM in test [15]; 41.5 µM in test [7]; over 100 µM in test [8]; over 100 µM in test [9]. The TGI in [12] was over 100 µM.
For `Cc1ccccc1OC(C)C(=O)NN1C(=O)CSC1c1ccc(Cl)cc1` (stereo not drawn), the TGI in [1] was over 100 µM; in test [2], 72.3 µM; in [13], 98.9 µM; in test [3] it was over 100 µM; in [4], over 93.6 µM; in [14] it was over 61 µM. Besides, the TGI in test [5] is over 93.4 µM; in test [6], 34.8 µM; in test [15], over 100 µM; in [7], over 58.8 µM; in [8] it was over 100 µM; in [9], over 100 µM. This molecule displayed a TGI in test [12] of over 61.3 µM.
Consider `COc1ccc(N=NC(C(=O)c2ccccc2)C(=O)c2ccccc2)cc1`, for which the TGI in test [1] was 91.1 µM; in test [2], over 100 µM; in test [4], over 100 µM; in [14] it was 53.7 µM; in test [5], over 100 µM; in test [6], 61 µM. Further, the TGI in [7] was 47 µM; in test [8], over 100 µM; in [9], 34 µM; in [10], 54.6 µM; in [12], over 100 µM.
For the molecule `CC(C)(C)OC(=O)NC1CC2(C=C(Br)C(=O)C(Br)=C2)OC1=O` (stereo not drawn), the TGI amounted to 24.7 µM in test [1]; 47.4 µM in test [2]; 30.3 µM in test [13]; 30.1 µM in [3]; 32.5 µM in test [4]; 4.21 µM in test [14]. Further, the TGI in test [5] came to 31.7 µM; in test [6], 7.5 µM; in [15], 27.3 µM; in test [7] it was 33.4 µM; in [8], 23 µM; in [9], 31.1 µM. Also, the TGI in test [12] was 38.9 µM.
As for `CN(C(=O)Cc1ccccc1)n1cnn(CC(=O)OC(C)(C)C)c1=S`, the TGI in [1], in test [2], in test [13], in [3], in [4] and in [14] was over 10 µM throughout. Moreover, the TGI in test [5], in test [6], in [15], in test [7], in test [8] and in [9] was over 10 µM each time. In [12], this molecule registered a TGI of over 10 µM.
In the case of `OC1(c2ccc(-c3ccccc3)cc2)c2ccccc2C2=NCCN21` (stereo not drawn), the TGI in [1] is 40.4 µM; in [2] it was over 100 µM; in test [13] it was over 100 µM; in test [3], over 100 µM; in test [4], 63.6 µM; in test [14] it was over 100 µM. Moreover, the TGI in [5] is over 100 µM; in test [6], 33.1 µM; in test [15], 62.9 µM; in test [7], over 100 µM; in test [8] it was over 100 µM; in test [9], 43.6 µM. The same molecule registered a TGI in test [12] of over 100 µM.
For `O=C(O)CCS/C(=C\C(SCCC(=O)O)c1ccc(Cl)cc1)c1ccc(Cl)cc1` (stereo not drawn), the TGI was 54.7 µM in test [1]; 39 µM in test [2]; 87.5 µM in test [13]; over 100 µM in test [3]; 49 µM in [4]; 95.6 µM in test [14]. Further, the TGI is over 100 µM in test [5]; over 100 µM in [6]; over 100 µM in test [15]; 63.1 µM in [7]; over 100 µM in test [8]; over 100 µM in [9]. The molecule also yielded a TGI in test [12] of over 100 µM.
